From US5391569A, “New chromene compounds having a triene side chain” (Adir et Compagnie, priority 1992, dated 1995) come the findings set out here.

For test [1], the system named is mouse calvaria. Description: Anti-bone resorption-1: inhibition of hyper-resorption in mouse calvaria (in vitro). It counts as cell-based. The settings on record: for inhibition at 50 µM / inhibition at 10 µM: hyper-resorption induced by 5×10^-8 M retinoic acid; for inhibition at 7.5 µM: 7,5 μM.
Test [2] relates to mice in which a state of hyper-resorption had been induced by a calcium-deficient diet. Put plainly: Anti-bone resorption-2: in vivo urinary [3H] tetracycline excretion in mice with hyper-resorption induced by calcium-deficient diet. The settings on record: calcium-deficient diet (0.4%). The protocol: In vivo study according to the measurement method described by Konig, Muhlbauer and Fleisch ("Tumor necrosis factor and interleukine-1 stimulate bone resorption in vivo as measured by urinary [^3 H] tetracycline excretion from prelabeled mice", J. Bone Min. Res., 3, (1988), 621-627). A study was carried out on mice in which a state of hyper-resorption had been induced by a calcium-deficient diet (0.4%).

Test [3] concerns mouse calvaria. Put plainly: Formation of osteoid tissue: incorporation of tritiated proline into bone tissue of mouse calvaria. The class given is cell-based. To be noted: read-out: Stimulation of formation. From the text:
An effect promoting the formation of osteoid tissue (incorporation of tritiated proline from the medium into the bone tissue of mouse calvaria) has also been observed with some compounds: […]

The target in test [4] is porcine pancreatic phospholipase A2 (PLA2) (Sus scrofa, UniProt P00592). Put plainly: Inhibition of liberation of tritiated oleic acid from Escherichia coli membranes by porcine pancreatic phospholipase A2. It counts as biochemical. To be noted: Test on Escherichia coli membranes. From the text:
The compounds of the present invention have an inhibiting activity on the liberation of tritiated oleic acid previously incorporated into Escherichia coli membranes under the effect of porcine pancreatic phospholipase A2 (PLA2) according to the technique described by Frason, Patriarca and Elsbach (J. Lipid. Res., 15, (1974), 380-388).

The test system of test [5] is endogenous membrane PLA2. Description: Inhibition of liberation of arachidonic acid from isolated rat polymorphonuclears stimulated by ionophore. To be noted: Test on rat PMNs; ionophore stimulation. The class given is cell-based. As for the experimental part: In a cell model involving endogenous membrane PLA2, the compounds of the invention also exerted an inhibiting effect on the liberation of arachidonic acid by their action on isolated rat polymorphonuclears (PLN), the membrane phospholipids of which had been labelled with tritiated arachidonic acid. The degree of activity of the compounds of the invention is assessed by measuring the radioactivity liberated after stimulation by ionophore […] according to the technique described by Sakson, Raz, Denny, Wyche and Needleman (Prostaglandins, 14, (1977), 853, sqq.).

Where two headings read alike, the source gives them in different places.

Sequence of porcine pancreatic phospholipase A2 (PLA2) (P00592 23-146): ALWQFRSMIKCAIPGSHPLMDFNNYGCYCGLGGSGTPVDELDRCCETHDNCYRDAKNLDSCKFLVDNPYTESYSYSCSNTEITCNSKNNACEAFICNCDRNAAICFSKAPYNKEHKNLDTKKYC

In test [1], `CCOC(=O)/C=C(C)/C=C/C=C(C)/C=C/c1c(C)cc(OC)c(C)c1C` [Etretinate, reference compound] showed an inhibition at 50 µM of 11%. Moreover, the “Effect on hyper-resorption / urinary excretion of tritiated tetracycline (in words)” value in test [2] is recorded as “tends to increase the urinary excretion of tritiated tetracycline”. The entries for the “% variation in urinary [3H] tetracycline excretion” value in test [2] (oral dose 50 mg/kg) and in test [2] (oral dose 100 mg/kg) were “+11%” and “+3%”, respectively.

`CC(/C=C/C=C(\C)C1=Cc2cc(-c3ccccc3)ccc2OC1)=C\C(=O)O` [Example 26, (2E,4E,6E)-3-Methyl-7-(6-phenyl-2H-chromen-3-yl)octa-2,4,6-trienoic acid]: in test [1], the inhibition at 10 µM was 11% and the inhibition at 50 µM is 29%. Besides, in test [3], the activation at 10 µM came to 7%. Moreover, the 50% inhibitory concentration (IC50) in test [4] was 5 µM.

Turning to `CCOC(=O)/C=C(C)/C=C/C=C(\C)C1=Cc2cc(C)ccc2OC1` [Example 32, Ethyl (2E,4E,6E)-7-(6-methyl-2H-chromen-3-yl)-3-methylocta-2,4,6-trienoate], in test [1], the inhibition at 10 µM is 14% and the inhibition at 50 µM was found to be 12%. The IC50 in test [4] was 7.5 µM.

With `Cc1cc(C)c2c(c1)C=C(/C=C/C=C/C=C/C(=O)O)C(C)(C)O2` [Example 18, (2E,4E,6E)-7-(2,2,6,8-Tetramethyl-2H-chromen-3-yl)hepta-2,4,6-trienoic acid], the IC50 in test [4] and in test [5] was 30 µM each time.

On to `Cc1cc(Cl)c2c(c1)C=C(/C=C/C=C/C=C/C(=O)O)CO2` [Example 14, (2E,4E,6E)-7-(6-Methyl-8-chloro-2H-chromen-3-yl)hepta-2,4,6-trienoic acid], for which the figures for the IC50 in test [4] and in test [5] were 20 µM and 50 µM, respectively.

On to `CC(/C=C/C=C(\C)C1=Cc2cc(C(C)(C)C)ccc2OC1)=C\C(=O)O` [Example 41, (2E,4E,6E)-7-(6-Tert.-butyl-2H-chromen-3-yl)-3-methylocta-2,4,6-trienoic acid], for which the IC50 in test [4] came out at 4 µM.

In the case of `CCOC(=O)/C=C(C)/C=C/C=C(\C)C1=Cc2cc(C(C)(C)C)cc(C)c2OC1` [Example 36, Ethyl (2E,4E,6E)-7-(6-tert.-butyl-8-methyl-2H-chromen-3-yl)-3-methylocta-2,4,6-trienoate], the IC50 in test [4] stood at 5 µM.

For the molecule `CC(C)(C)c1cc2c(c(C(C)(C)C)c1)OCC(/C=C/C=C/C=C/C(=O)O)=C2` [Example 13, (2E,4E,6E)-7-(6,8-Ditert.-butyl-2H-chromen-3-yl)hepta-2,4,6-trienoic acid], the IC50 was found to be 3 µM in test [4] and 5 µM in test [5].

For the molecule `Cc1cc(C)c2c(c1)C=C(/C=C/C=C/C=C\C(=O)O)CO2` [Example 2, (2Z,4E,6E)-7-(6,8-Dimethyl-2H-chromen-3-yl) hepta-2,4,6-trienoicacid], the “% variation in urinary [3H] tetracycline excretion” value in test [2] (oral dose 50 mg/kg) is on record as -10%; in test [2] (oral dose 100 mg/kg), -10%; in test [2] (oral dose 200 mg/kg), -12%.

Turning to `Cc1cc(Cl)cc2c1OC(C)(C)C(/C=C/C=C/C=C/C(=O)O)=C2` [Example 19, (2E,4E,6E)-7-(2,2,8-Trimethyl-6-chloro-2H-chromen-3-yl)hepta-2,4,6-trienoic acid], the IC50 in test [4] was found to be 30 µM; in test [5], 50 µM.

For the molecule `CCOC(=O)\C=C(C)/C=C/C=C(\C)C1=Cc2cc(-c3ccccc3)ccc2OC1` [Example 27], in test [1], the inhibition at 10 µM was 11%. Further, in test [4], the IC50 was 7.5 µM.

`CC(C)(C)c1ccc2c(c1)C=C(/C=C/C=C/C=C/C(=O)O)CO2` [Example 6, (2E,4E,6E)-7-(6-Tert.-butyl-2H-chromen-3-yl) hepta-2,4,6-trienoic acid]: the IC50 turned out to be 9 µM in test [4] and 10 µM in test [5].

In the case of `CC(C)c1ccc2c(c1)C=C(/C=C/C=C/C=C/C(=O)O)CO2` [Example 5, (2E,4E,6E)-7-(6-Isopropyl-2H-chromen-3-yl) hepta-2,4,6-trienoic acid], the IC50 in test [4] came to 7.5 µM; in test [5] it was 30 µM.

As to `Cc1cc2c(c(C(C)(C)C)c1)OCC(/C=C/C=C/C=C/C(=O)O)=C2` [Example 11, (2E,4E,6E)-7-(6-Methyl-8-tert.-butyl-2H-chromen-3-yl)hepta-2,4,6-trienoic acid], the IC50 worked out at 6 µM in test [4] and 5 µM in test [5].

`CCOC(=O)/C=C(C)/C=C/C=C(\C)C1=Cc2cc(C(C)(C)C)ccc2OC1` [Example 33, Ethyl (2E,4E,6E)-7-(6-tert.-butyl-2H-chromen-3-yl)-3-methylocta-2,4,6-trienoate] registered an inhibition at 10 µM in test [1] of 3%.

In test [1], `CCOC(=O)/C=C(C)/C=C/C=C(\C)C1=Cc2cc(C)cc(C)c2OC1` [Example 35, Ethyl (2E,4E,6E)-7-(6,8-dimethyl-2H-chromen-3-yl)-3-methylocta-2,4,6-trienoate] gave an inhibition at 10 µM of 15% and an inhibition at 50 µM of 32%. Besides, the inhibition at 7.5 µM in test [1] (parathormone (PTH) 500 ng/ml, read-out: Hyper-resorption with PTH) was 12%. Moreover, the inhibition at 7.5 µM in test [1] (retinoic acid, read-out: Hyper-resorption with retinoic acid) turned out to be 9%. Further, the activation at 10 µM in test [3] turned out to be 11%. Besides, the IC50 in test [4] is 5 µM.

On to `Cc1cc(Cl)cc2c1OCC(/C=C/C=C/C=C/C(=O)O)=C2` [Example 15, (2E,4E,6E)-7-(6-Chloro-8-methyl-2H-chromen-3-yl)hepta-2,4,6-trienoic acid], for which the IC50 in test [4] is 10 µM; in test [5] it was 50 µM.

`CCOC(=O)/C=C(C)/C=C/C=C(\C)C1=Cc2cc(-c3ccccc3)ccc2OC1` [Example 25, Ethyl (2E,4E,6E)-3-methyl-7-(6-phenyl-2-H-chromen-3-yl)octa-2,4,6-trienoate]: in test [1], the inhibition at 50 µM came to 15%. The IC50 in test [4] stood at 5 µM.

Take `O=C(O)/C=C/C=C/C=C/C1=Cc2cc(Cl)cc(Cl)c2OC1` [Example 20, (2E,4E,6E)-7-(6,8-Dichloro-2H-chromen-3-yl) hepta-2,4,6-trienoic acid]: the IC50 in test [4] came to 8 µM; in test [5], 30 µM.

By IC50 is commonly meant the concentration needed to halve the response being measured.
